Test results from patent publication US20250152660A1, “SCO-spondin-derived polypeptides for treating biological barriers dysfunction” (AXOLTIS PHARMA, priority 2021, published 2025).
Values joined by “and” are separate entries in the source; they are usually repeats but may differ in a detail not shown here. Identical values can stand only once. Bridges are numbered along the chain shown (N, C = ends). Where no end group is shown, it is not given here.

Assays:
[1] = system: mouse brain endothelial bEnd.3 cells; experiment: Permeability of mouse brain endothelial cell monolayer to FITC-40 kDa Dextran; format: cell-based; conditions: for Permeability to FITC-40 kDa Dextran (endothelial permeability coefficient Pe): individual replicates N1-N3
Description: To determine the effect of NX218 on the permeability of mouse brain endothelial cells to a 40-kDa FITC Dextran, cells were grown on a semi-permeable membrane inserted in culture wells in presence or absence of NX218. Then, the FITC Dextran was placed on the apical chamber (containing the cells) and its levels measured (based on its fluorescence) one hour later in the basolateral chamber.
Mouse brain endothelial cells (bEnd.3, American Type Culture Collection) were cultured in DMEM supplemented with 10% FBS and 2 mM sodium pyruvate in a 5% CO2 incubator at 37° C.
bEnd.3 cells were grown to confluence on 1% fibronectin-coated Corning HTS 24-well Transwell polyester inserts with a pore size of 0.4 μm (5×10^4 cells per well containing 200 μL and 800 μL of culture medium in the apical and basolateral compartments respectively) and treated with vehicle or NX218 (1, 10 and 100 μM) for 1, 2 or 3 days. Two hundred (200) μL of 1 mg/mL of a 40-kDa FITC Dextran in DMEM supplemented with 10% FBS and 2 mM sodium pyruvate were added to the apical chamber of each well, and the cells were incubated at 37° C. Sampling aliquots were taken from the basolateral chamber and replaced with fresh medium every 15 min for 1 h and then transferred to 96-well plates. FITC-Dextran fluorescence was determined using a spectrofluorometer at an excitation wavelength of 485 nm and an emission wavelength of 520 nm. Relative fluorescence units were converted to values of nanograms per milliliter, using FITC-Dextran standard curves, and was corrected for background fluorescence and serial dilutions over the course of the experiment. The data are expressed as the endothelial permeability coefficient (Pe) in cm/min.

[2] = system: Occludin in mouse brain endothelial bEnd.3 cells; experiment: Occludin western blot in mouse brain endothelial cell cultures; format: cell-based; conditions: for Expression of Occludin, Average: average of N1-N8
Description: To understand the effect of NX218 on the TEER and permeability of mouse brain endothelial cells, the levels of the tight junction protein Occludin were assessed using Western Blot.
Mouse brain endothelial cells (bEnd.3, American Type Culture Collection) were cultured in DMEM supplemented with 10% fetal FBS and 2 mM sodium pyruvate in a 5% CO2 incubator at 37° C.
bEnd.3 cells were seeded on 12-well plates (2.5×10^5 cells per well in 1,000 μL) for western-blot analyses. Two days after seeding, cells were treated with vehicle or NX218 (1, 10 and 100 μM) for 24 hours. Proteins were isolated from the cell layers with lysis buffer (62.5 mM Tris, 2% SDS, 10 mM dithiothreitol, 10 μL protease inhibitor cocktail/100 mL (Sigma-Aldrich)), centrifugated at 12,000 r.p.m for 20 min at 4° C., and supernatants were used for analysis of tight junction proteins. Protein concentrations were determined with the Pierce BCA protein assay (Thermo Scientific). Ten (10) μL of samples and standards (working range=125-2000 μg/mL) were loaded in duplicate into a 96-well plate and 200 μL of working reagent (50 parts BCA reagent A with 1 part BCA reagent B) were added to each well, mixed on a shaker and incubated at 37° C. for 30 min. The plate was cooled to RT and the absorbance read at 562 nm. Protein concentrations were calculated from a standard curve. Ten (10) μg total protein were loaded per well for separation by SDS-polyacrylamide gel electrophoresis (12% acrylamide). Gels were transferred onto methanol-activated polyvinylidene difluoride membranes (Merck Millipore) via semi-dry transfer. Transferred membranes were reactivated with methanol and blocked under slight agitation in tris-buffered saline (TBS)-Tween-20 containing 3% weight/volume Marvel non-fat dry milk for 1 h at RT. Blocked membranes were washed three times with TBS-Tween-20 and treated with primary rabbit polyclonal antibodies against Occludin (Novus Biotech, ref. NBP1-87402, 65 kDa, 1/1000 dilution) overnight at 4° C. Membranes were washed three times for 5 min in TBS-Tween-20 and incubated with horseradish peroxidase-conjugated goat anti-rabbit secondary antibody (A6154, Sigma-Aldrich) diluted 1/2,000 in TBS-Tween-20 for 2 h at RT. Secondary antibody was removed and membranes washed four times for 5 min in TBS-Tween-20. Blots were developed by enhanced chemiluminescence (ECL). A 1:1 mix of WesternBright ECL Luminol/enhancer solution and Peroxide Chemiluminescent solution (Advansta) was incubated at RT for 2 min before being directly added onto washed blots. The LiCor C-Digit Blot Scanner was used to detect chemiluminescence over a 12-minute exposure time.

## W-S-G-W-S-S-C-S-R-S-C-G (WSGWSSCSRSCG; disulfide 7-11 (inferred)) [NX218]
[1]; NX218 1 μM, 24 hours, average of N1-N3, control 0.066
  Permeability to FITC-40 kDa Dextran (Pe), Average: 1064 ×10⁻⁶ cm/s
[1]; NX218 1 μM, 24 hours
  Permeability to FITC-40 kDa Dextran (endothelial permeability coefficient Pe): 1020 ×10⁻⁶ cm/s and 971 ×10⁻⁶ cm/s and 1200 ×10⁻⁶ cm/s
[1]; NX218 1 μM, 48 hours, average of N1-N3, control 0.05616
  Permeability to FITC-40 kDa Dextran (Pe), Average: 896.3 ×10⁻⁶ cm/s
[1]; NX218 1 μM, 48 hours
  Permeability to FITC-40 kDa Dextran (endothelial permeability coefficient Pe): 963 ×10⁻⁶ cm/s and 781.5 ×10⁻⁶ cm/s and 944.3 ×10⁻⁶ cm/s
[1]; NX218 1 μM, 72 hours, average of N1-N3, control 0.0532667
  Permeability to FITC-40 kDa Dextran (Pe), Average: 906.3 ×10⁻⁶ cm/s
[1]; NX218 1 μM, 72 hours
  Permeability to FITC-40 kDa Dextran (endothelial permeability coefficient Pe): 942 ×10⁻⁶ cm/s and 942.2 ×10⁻⁶ cm/s and 834.8 ×10⁻⁶ cm/s
[1]; NX218 10 μM, 24 hours, average of N1-N3, control 0.066
  Permeability to FITC-40 kDa Dextran (Pe), Average: 977.3 ×10⁻⁶ cm/s
[1]; NX218 10 μM, 24 hours
  Permeability to FITC-40 kDa Dextran (endothelial permeability coefficient Pe): 892 ×10⁻⁶ cm/s and 1030 ×10⁻⁶ cm/s and 1010 ×10⁻⁶ cm/s
[1]; NX218 10 μM, 48 hours, average of N1-N3, control 0.05616
  Permeability to FITC-40 kDa Dextran (Pe), Average: 841.3 ×10⁻⁶ cm/s
[1]; NX218 10 μM, 48 hours
  Permeability to FITC-40 kDa Dextran (endothelial permeability coefficient Pe): 909 ×10⁻⁶ cm/s and 760 ×10⁻⁶ cm/s and 855 ×10⁻⁶ cm/s
[1]; NX218 10 μM, 72 hours, average of N1-N3, control 0.0532667
  Permeability to FITC-40 kDa Dextran (Pe), Average: 747.7 ×10⁻⁶ cm/s
[1]; NX218 10 μM, 72 hours
  Permeability to FITC-40 kDa Dextran (endothelial permeability coefficient Pe): 748.2 ×10⁻⁶ cm/s and 783 ×10⁻⁶ cm/s and 712 ×10⁻⁶ cm/s
[1]; NX218 100 μM, 24 hours, average of N1-N3, control 0.066
  Permeability to FITC-40 kDa Dextran (Pe), Average: 942 ×10⁻⁶ cm/s
[1]; NX218 100 μM, 24 hours
  Permeability to FITC-40 kDa Dextran (endothelial permeability coefficient Pe): 907 ×10⁻⁶ cm/s and 1012 ×10⁻⁶ cm/s and 906.3 ×10⁻⁶ cm/s
[1]; NX218 100 μM, 48 hours, average of N1-N3, control 0.05616
  Permeability to FITC-40 kDa Dextran (Pe), Average: 702 ×10⁻⁶ cm/s
[1]; NX218 100 μM, 48 hours
  Permeability to FITC-40 kDa Dextran (endothelial permeability coefficient Pe): 627 ×10⁻⁶ cm/s and 725 ×10⁻⁶ cm/s and 753 ×10⁻⁶ cm/s
[1]; NX218 100 μM, 72 hours, average of N1-N3, control 0.0532667
  Permeability to FITC-40 kDa Dextran (Pe), Average: 782 ×10⁻⁶ cm/s
[1]; NX218 100 μM, 72 hours
  Permeability to FITC-40 kDa Dextran (endothelial permeability coefficient Pe): 798 ×10⁻⁶ cm/s and 758.7 ×10⁻⁶ cm/s and 787.7 ×10⁻⁶ cm/s
[2]; 1 μM, 24 h, bEnd.3, p=0.0309
  Increase of occludin protein levels vs control: +26.3%
[2]; 10 μM, 24 h, bEnd.3, p=0.0053
  Increase of occludin protein levels vs control: +41.1%
[2]; 100 μM, 24 h, bEnd.3, p=0.0112
  Increase of occludin protein levels vs control: +36.8%
[2]; 1, 10 and 100 μM, 24 h, compared with control
  Occludin protein levels, result in words: significant increase of occludin protein levels
[2]; FIG. 6, 24-hour treatment
  Expression of Occludin: increases the expression of Occludin
[2]; NX218 1 μM, 24 hours, bEnd.3, western blot
  Expression of Occludin, Average: 126.30 % of Control
[2]; NX218 1 μM, 24 hours, bEnd.3, western blot, individual replicates N1-N8
  Expression of Occludin: 124.20 % of Control and 120.60 % of Control and 92.30 % of Control and 152.80 % of Control and 146.80 % of Control and 135.50 % of Control and 125.00 % of Control and 113.00 % of Control
[2]; NX218 10 μM, 24 hours, bEnd.3, western blot
  Expression of Occludin, Average: 141.10 % of Control
[2]; NX218 10 μM, 24 hours, bEnd.3, western blot, individual replicates N1-N8
  Expression of Occludin: 124.20 % of Control and 123.30 % of Control and 114.20 % of Control and 93.50 % of Control and 187.30 % of Control and 166.20 % of Control and 176.60 % of Control and 143.50 % of Control
[2]; NX218 100 μM, 24 hours, bEnd.3, western blot
  Expression of Occludin, Average: 136.80 % of Control
[2]; NX218 100 μM, 24 hours, bEnd.3, western blot, individual replicates N1-N8
  Expression of Occludin: 112.10 % of Control and 103.80 % of Control and 111.20 % of Control and 188.40 % of Control and 123.40 % of Control and 158.40 % of Control and 122.20 % of Control and 174.50 % of Control
